Source: ChEMBL document CHEMBL3244053, “Structural modification study of bis(substituted aminoalkylamino)anthraquinones. An evaluation of the relationship of the [2-[(2-hydroxyethyl)amino]ethyl]amino side chain with antineoplastic activity” (1979)
The source made the active and inactive calls. The calls are words filed in the database; no cut-off is given here.

Experiments:
[1] = test system: P388; test: Antineoplastic activity against mouse P388 cells allografted in CDF1 mouse assessed as survival at 30 mg/kg qd for 9 days; assay type: functional, organism-based; parameters: dose 30 mg/kg
[2] = test system: P388; test: Antineoplastic activity against mouse P388 cells allografted in CDF1 mouse at 30 mg/kg qd for 9 days relative to control; assay type: functional
[3] = test system: P388; test: Antineoplastic activity against mouse P388 cells allografted in CDF1 mouse assessed as survival at 25 mg/kg qd for 9 days; assay type: functional, organism-based; parameters: dose 25 mg/kg
[4] = test system: P388; test: Antineoplastic activity against mouse P388 cells allografted in CDF1 mouse at 25 mg/kg qd for 9 days relative to control; assay type: functional
[5] = test system: P388; test: Antineoplastic activity against mouse P388 cells allografted in CDF1 mouse assessed as survival at 15 mg/kg qd for 9 days; assay type: functional, organism-based; parameters: dose 15 mg/kg
[6] = test system: P388; test: Antineoplastic activity against mouse P388 cells allografted in CDF1 mouse at 15 mg/kg qd for 9 days relative to control; assay type: functional
[7] = test system: P388; test: Antineoplastic activity against mouse P388 cells allografted in CDF1 mouse assessed as survival at 12.5 mg/kg qd for 9 days; assay type: functional, organism-based; parameters: dose 12.5 mg/kg
[8] = test system: P388; test: Antineoplastic activity against mouse P388 cells allografted in CDF1 mouse at 12.5 mg/kg qd for 9 days relative to control; assay type: functional
[9] = test system: B16; test: Antineoplastic activity against mouse B16 cells allografted in BDF1 mouse assessed as survival at 80 mg/kg qd for 9 days; assay type: functional, organism-based; parameters: dose 80 mg/kg
[10] = test system: B16; test: Antineoplastic activity against mouse B16 cells allografted in BDF1 mouse at 80 mg/kg qd for 9 days relative to control; assay type: functional
[11] = test system: B16; test: Antineoplastic activity against mouse B16 cells allografted in BDF1 mouse assessed as survival at 40 mg/kg qd for 9 days; assay type: functional, organism-based; parameters: dose 40 mg/kg
[12] = test system: B16; test: Antineoplastic activity against mouse B16 cells allografted in BDF1 mouse at 40 mg/kg qd for 9 days relative to control; assay type: functional
[13] = test system: B16; test: Antineoplastic activity against mouse B16 cells allografted in BDF1 mouse assessed as survival at 20 mg/kg qd for 9 days; assay type: functional, organism-based; parameters: dose 20 mg/kg
[14] = test system: B16; test: Antineoplastic activity against mouse B16 cells allografted in BDF1 mouse at 20 mg/kg qd for 9 days relative to control; assay type: functional
[15] = test system: B16; test: Antineoplastic activity against mouse B16 cells allografted in BDF1 mouse assessed as survival at 10 mg/kg qd for 9 days; assay type: functional, organism-based; parameters: dose 10 mg/kg
[16] = test system: B16; test: Antineoplastic activity against mouse B16 cells allografted in BDF1 mouse at 10 mg/kg qd for 9 days relative to control; assay type: functional
[17] = test system: Colon 26; test: Antineoplastic activity against mouse Colon 26 cells allografted in CDF1 mouse assessed as survival at 20 mg/kg qd for 9 days; assay type: functional, organism-based; parameters: dose 20 mg/kg
[18] = test system: Colon 26; test: Antineoplastic activity against mouse Colon 26 cells allografted in CDF1 mouse at 20 mg/kg qd for 9 days relative to control; assay type: functional
[19] = test system: Colon 26; test: Antineoplastic activity against mouse Colon 26 cells allografted in CDF1 mouse at 10 mg/kg qd for 9 days relative to control; assay type: functional
[20] = test system: L1210; test: Antineoplastic activity against mouse L1210 cells allografted in CDF1 mouse assessed as survival at 15 mg/kg qd for 9 days; assay type: functional, organism-based; parameters: dose 15 mg/kg
[21] = test system: L1210; test: Antineoplastic activity against mouse L1210 cells allografted in CDF1 mouse at 15 mg/kg qd for 9 days relative to control; assay type: functional
[22] = test system: L1210; test: Antineoplastic activity against mouse L1210 cells allografted in CDF1 mouse at 30 mg/kg qd for 9 days relative to control; assay type: functional
[23] = test system: P388; test: Antineoplastic activity against mouse P388 cells allografted in CDF1 mouse assessed as survival at 20 mg/kg qd for 9 days; assay type: functional, organism-based; parameters: dose 20 mg/kg
[24] = test system: P388; test: Antineoplastic activity against mouse P388 cells allografted in CDF1 mouse at 20 mg/kg qd for 9 days relative to control; assay type: functional
[25] = test system: P388; test: Antineoplastic activity against mouse P388 cells allografted in CDF1 mouse assessed as survival at 10 mg/kg qd for 9 days; assay type: functional, organism-based; parameters: dose 10 mg/kg
[26] = test system: P388; test: Antineoplastic activity against mouse P388 cells allografted in CDF1 mouse at 10 mg/kg qd for 9 days relative to control; assay type: functional
[27] = test system: P388; test: Antineoplastic activity against mouse P388 cells allografted in CDF1 mouse assessed as survival at 5 mg/kg qd for 9 days; assay type: functional, organism-based; parameters: dose 5 mg/kg
[28] = test system: P388; test: Antineoplastic activity against mouse P388 cells allografted in CDF1 mouse at 5 mg/kg qd for 9 days relative to control; assay type: functional
[29] = test system: P388; test: Antineoplastic activity against mouse P388 cells allografted in CDF1 mouse assessed as survival at 40 mg/kg qd for 9 days; assay type: functional, organism-based; parameters: dose 40 mg/kg
[30] = test system: P388; test: Antineoplastic activity against mouse P388 cells allografted in CDF1 mouse at 40 mg/kg qd for 9 days relative to control; assay type: functional
[31] = test system: P388; test: Antineoplastic activity against mouse P388 cells allografted in CDF1 mouse assessed as survival at 50 mg/kg qd for 9 days; assay type: functional, organism-based; parameters: dose 50 mg/kg
[32] = test system: P388; test: Antineoplastic activity against mouse P388 cells allografted in CDF1 mouse at 50 mg/kg qd for 9 days relative to control; assay type: functional
[33] = test system: P388; test: Antineoplastic activity against mouse P388 cells allografted in CDF1 mouse at 100 mg/kg qd for 9 days relative to control; assay type: functional
[34] = test system: B16; test: Antineoplastic activity against mouse B16 cells allografted in BDF1 mouse assessed as survival at 100 mg/kg qd for 9 days; assay type: functional, organism-based; parameters: dose 100 mg/kg
[35] = test system: B16; test: Antineoplastic activity against mouse B16 cells allografted in BDF1 mouse at 100 mg/kg qd for 9 days relative to control; assay type: functional
[36] = test system: B16; test: Antineoplastic activity against mouse B16 cells allografted in BDF1 mouse at 50 mg/kg qd for 9 days relative to control; assay type: functional
[37] = test system: B16; test: Antineoplastic activity against mouse B16 cells allografted in BDF1 mouse assessed as survival at 25 mg/kg qd for 9 days; assay type: functional, organism-based; parameters: dose 25 mg/kg
[38] = test system: B16; test: Antineoplastic activity against mouse B16 cells allografted in BDF1 mouse at 25 mg/kg qd for 9 days relative to control; assay type: functional
[39] = test system: P388; test: Antineoplastic activity against mouse P388 cells allografted in CDF1 mouse assessed as survival at 100 mg/kg qd for 9 days; assay type: functional, organism-based; parameters: dose 100 mg/kg

Cc1ccc(NCCNCCO)c2c(=O)c3ccccc3sc12
Activity [1]: Active | T/C [2]: 136% | Activity [3]: Active | T/C [4]: 120% | Activity [5]: Active | T/C [6]: 123% | Activity [7]: Active | T/C [8]: 113%

CN(C)CCNc1ccc(NCCN(C)C)c2c1C(=O)c1ccccc1C2=O
Activity [9]: Active | T/C [10]: 146% | Activity [11]: Active | T/C [12]: 148% | Activity [13]: Active | T/C [14]: 142% | Activity [15]: Active | T/C [16]: 125% | Activity [17]: Active | T/C [18]: 113% | T/C [19]: 123% | Activity [20]: Active | T/C [21]: 117% | T/C [22]: 150% | Activity [23]: Active | T/C [24]: 163% | Activity [25]: Active | T/C [26]: 149% | Activity [27]: Active | T/C [28]: 133% | Activity [29]: Active | T/C [30]: 202%

CN(C)CCC1=CC(=O)c2ccccc2C1=O
Activity [31]: Active | T/C [32]: 100% | T/C [33]: 97%

CN(C)CCOc1cccc2c1C(=O)c1ccccc1C2=O
Activity [31]: Active | T/C [32]: 107% | Activity [34]: Active | T/C [35]: 104% | T/C [36]: 97% | Activity [37]: Active | T/C [38]: 93% | Activity [39]: Active | T/C [33]: 109%
